Data reported in paper PMC8704389, “New Insights into the Hypotensins from Tityus serrulatus Venom: Pro-Inflammatory and Vasopeptidases Modulation Activities” (Toxins, 2021).
No end group written: not given here.

What was measured:
NEP = molecular target: T1, NEP (Homo sapiens, UniProt P08473); test: Characterization of NEP inhibition (Ki and mechanism, Lineweaver-Burk); assay type: biochemical
T1 construct: gift of Prof; Adriana Carmona, Department of Biophysics, UNIFESP-EPM
Procedure: Figure 2 Lineweaver–Burk plot of NEP inhibition by TsHpt-I. The inhibition constant (Ki) was determined using four Abz-RGFK-EDDnp substrate concentrations (4 μM, 6 μM, 8 μM and 10 μM), with variation in the concentration of TsHpt-I (3 μM and 4 μM), keeping the amount of enzyme fixed (1.5 ng). The experiment was performed in triplicate.
To determine the inhibition constant (Ki) of TsHpt-I over NEP, four concentrations of Abz-RGFK (Dnp)-OH (4 µM, 6 µM, 8 µM and 10 µM) and 3 µM and 4 µM of TsHpt-I were tested using 1.5 ng of peptidase in 100 µL of final volume of Tris HCl pH 7.5. The Km value of the substrate used was determined to be 14 µM [27]. Controls without the TsHpt-I were also performed in all assays. The reactions were monitored as described above (item 5.2). The Lineweaver–Burk plot was constructed (1/V × 1/(S)) according to the presented mechanism. The Ki was calculated as described by Segel. All assays were performed in triplicate.

normotensive Wistar rats = conditions: by potentiating bradykinin; cited from earlier work
From the text: Among the linear peptides we have the hypotensins (TsHpt), identified from TsV proteomic analyzes. Both peptides are made up of 25 amino acid residues that contain two consecutive prolines in their C-terminal portion and a punctual difference between TsHpt-I and -II, which is the residue at position 15, being a glutamine in TsHpt-I and a glutamic acid in TsHpt-II. […] The hypothesis is that the vasodilation effect is related to the releas ...

T1 sequence (P08473 2-750): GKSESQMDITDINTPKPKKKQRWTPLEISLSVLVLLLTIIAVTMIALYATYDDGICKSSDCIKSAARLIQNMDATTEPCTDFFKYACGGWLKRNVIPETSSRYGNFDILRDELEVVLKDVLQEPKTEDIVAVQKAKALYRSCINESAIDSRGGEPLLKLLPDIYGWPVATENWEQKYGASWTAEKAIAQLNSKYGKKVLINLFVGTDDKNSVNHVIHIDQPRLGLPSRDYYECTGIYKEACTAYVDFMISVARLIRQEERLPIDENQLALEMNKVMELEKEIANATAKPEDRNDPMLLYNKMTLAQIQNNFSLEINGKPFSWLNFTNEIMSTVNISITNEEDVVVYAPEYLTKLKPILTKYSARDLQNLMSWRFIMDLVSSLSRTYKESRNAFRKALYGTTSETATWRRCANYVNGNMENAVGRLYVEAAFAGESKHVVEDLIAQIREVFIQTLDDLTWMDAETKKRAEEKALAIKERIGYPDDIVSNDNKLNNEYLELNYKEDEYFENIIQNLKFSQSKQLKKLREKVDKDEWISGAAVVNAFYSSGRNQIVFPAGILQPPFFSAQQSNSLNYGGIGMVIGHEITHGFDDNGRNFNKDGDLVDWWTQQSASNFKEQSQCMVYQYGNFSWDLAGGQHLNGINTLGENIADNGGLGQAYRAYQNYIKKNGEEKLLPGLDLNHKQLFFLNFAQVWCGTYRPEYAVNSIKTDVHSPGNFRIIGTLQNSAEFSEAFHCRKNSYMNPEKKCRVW

For AEIDFSGIPEDIIKQIKETNAKPPA [TsHpt-I], the Ki (NEP) is given as 4.35 µM, the “mechanism of inhibition of NEP” value (NEP; Lineweaver-Burk plot, triplicate) is given as “non-competitive inhibitor” and the hypotensive activity (normotensive Wistar rats) is given as “able to exert hypotensive activity”.
